Experimental data from patent US11731986B2 (Sanford Burnham Prebys Medical Discovery Institute, priority 2017, dated 2023).

Biological target: T1, human LMPTP-A (Homo sapiens, UniProt P24666)
T1 sequence (P24666 1-158): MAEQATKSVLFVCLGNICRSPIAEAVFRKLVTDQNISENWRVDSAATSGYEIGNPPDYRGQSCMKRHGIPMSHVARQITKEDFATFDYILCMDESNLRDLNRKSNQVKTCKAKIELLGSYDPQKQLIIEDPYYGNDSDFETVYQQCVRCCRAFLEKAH
Experiment: Enzyme Assay of Inhibition of LMPTP-A (phosphatase assay, OMFP or pNPP substrate)
Assay type: biochemical
Conditions: Bis-Tris pH 6.0, 37° C.
Method: Phosphatase assays were performed in buffer containing 50 mM Bis-Tris, pH 6.0, 1 mM DTT and 0.01% Triton X-100 at 37° C. For assays conducted with 3-O-methylfluorescein phosphate (OMFP) as substrate, fluorescence was monitored continuously at λex=485 and λem=525 nm. For assays conducted with para-nitrophenylphosphate (pNPP) as substrate, the reaction was stopped by addition of 2× reaction volume of 1 M NaOH, and absorbance was measured at 405 nm. IC50 values of compounds of Formula (I), (II), (III), or (IV) were determined from plots of inhibitor concentration versus percentage of enzyme activity. For inhibitor selectivity assays, each PTP was incubated with either 0.4 mM OMFP or 5 mM pNPP in the presence of 40 μM compound or DMSO. […] For the inhibitor reversibility assay, 50 nM human LMPTP-A was pre-incubated with 10 μM of compound of Formula (I), (II), (III), or (IV) or DMSO for 5 min. The enzyme was diluted 100× in phosphatase assay buffer containing 0.4 mM OMFP and fluorescence was measured at the indicated time points.

SMILES | IC50 [nM]
CN1CCC(CCNC(=O)/C=C/c2ccc(-c3cc(NCCCN4CCCCC4)c4cnccc4n3)cc2)CC1 [(E)-N-(2-(1-Methylpiperidin-4-yl)ethyl)-3-(4-(4-(3-(piperidin-1-yl)propylamino)-1,6-naphthyridin-2-yl)phenyl)acrylamide] | ≤ 1000
CN1CCC(CCNC(=O)/C=C/c2ccc(-c3cc(NCCCN4CCCCC4)c4cnccc4n3)o2)CC1 [(E)-N-(2-(1-Methylpiperidin-4-yl)ethyl)-3-(5-(4-((3-(piperidin-1-yl)propyl)amino)-1,6-naphthyridin-2-yl)furan-2-yl)acrylamide] | 1000 to 20000
CN1CCCN(CCNC(=O)/C=C/c2ccc(-c3cc(NCCCN4CCCCC4)c4cnccc4n3)cc2)CC1 [(E)-N-(2-(4-Methyl-1,4-diazepan-1-yl)ethyl)-3-(4-(4-(3-(piperidin-1-yl)propylamino)-1,6-naphthyridin-2-yl)phenyl)acrylamide] | ≤ 1000
CN(C)CCNC(=O)/C=C/c1ccc(-c2cc(NCCCN3CCCCC3)c3cnccc3n2)cc1 [(E)-N-(2-(Dimethylamino)ethyl)-3-(4-(4-(3-(piperidin-1-yl)propylamino)-1,6-naphthyridin-2-yl)phenyl)acrylamide] | ≤ 1000
O=C(/C=C/c1ccc(-c2cc(NCCCN3CCCCC3)c3cnccc3n2)cc1)NCCCN1CCCCC1 [(E)-N-(3-(Piperidin-1-yl)propyl)-3-(4-(4-(3-(piperidin-1-yl)propylamino)-1,6-naphthyridin-2-yl)phenyl)acrylamide] | ≤ 1000
CCN1CCC(CNC(=O)/C=C/c2ccc(-c3cc(NCCCN4CCCCC4)c4cnccc4n3)cc2)CC1 [(E)-N-((1-Ethylpiperidin-4-yl)methyl)-3-(4-(4-(3-(piperidin-1-yl)propylamino)-1,6-naphthyridin-2-yl)phenyl)acrylamide] | 1000 to 20000
CN1CCC(CNC(=O)/C=C/c2ccc(-c3cc(NCCCN4CCCCC4)c4cnccc4n3)cc2)CC1 [(E)-N-((1-Methylpiperidin-4-yl)methyl)-3-(4-(4-(3-(piperidin-1-yl)propylamino)-1,6-naphthyridin-2-yl)phenyl)acrylamide] | ≤ 1000
CN1CCC(N/C(=N\O)c2ccc(-c3cc(NCCCN4CCCCC4)c4cncc(Cl)c4n3)cc2)CC1 [(Z)-4-(8-chloro-4-((3-(piperidin-1-yl)propyl)amino)-1,6-naphthyridin-2-yl)-N′-hydroxy-N-(1-methylpiperidin-4-yl)benzimidamide] | ≥ 20000
CO/N=C(\NC1CCN(C)CC1)c1ccc(-c2cc(NCCCN3CCCCC3)c3cnccc3n2)cc1 [(Z)-N′-methoxy-N-(1-methylpiperidin-4-yl)-4-(4-(3-(piperidin-1-yl)propylamino)-1,6-naphthyridin-2-yl)benzimidamide] | ≤ 1000
O=C(c1nc2ccc(-c3cc(NCCCN4CCCCC4)c4cnccc4n3)cc2s1)N1CCOCC1 [Morpholino(6-(4-(3-(piperidin-1-yl)propylamino)-1,6-naphthyridin-2-yl)benzo[d]thiazol-2-yl)methanone] | 1000 to 20000
CCN(CC)C(=O)c1ccc(-c2cc(NCCCN3CCCCC3)c3cnccc3n2)c(C(N)=O)c1 [N1,N1-diethyl-4-(4-((3-(piperidin-1-yl)propyl)amino)-1,6-naphthyridin-2-yl)isophthalamide] | 1000 to 20000
CCN(CC)C(=O)CCc1ccc(-c2cc(NC3CCN(C)CC3)c3cnccc3n2)cc1 [N,N-Diethyl-3-(4-(4-(1-methylpiperidin-4-ylamino)-1,6-naphthyridin-2-yl)phenyl)propanamide] | ≤ 1000
CCN(CC)C(=O)c1ccc(-c2cc(NC3CCN(C)C3)c3cnccc3n2)cc1 (stereo not drawn) [N,N-Diethyl-4-(4-(1-methylpyrrolidin-3-ylamino)-1,6-naphthyridin-2-yl)benzamide] | 1000 to 20000
CCN(CC)C(=O)c1ccc(-c2cc(Nc3ccc(NCCOC)cc3)c3cnccc3n2)cc1 [N,N-Diethyl-4-(4-(4-(2-methoxyethylamino)phenylamino)-1,6-naphthyridin-2-yl)benzamide] | 1000 to 20000
CCN(CC)C(=O)c1ccc(-c2cc(Nc3ccc(OC)cc3)c3cnccc3n2)cc1 [N,N-Diethyl-4-(4-(4-methoxyphenylamino)-1,6-naphthyridin-2-yl)benzamide] | 1000 to 20000
CCN(CC)C(=O)c1ccc(-c2cc(NC3CCN(C)CC3)c3cnccc3n2)cc1 [N,N-Diethyl-4-(4-((1-methylpiperidin-4-yl)amino)-1,6-naphthyridin-2-yl)benzamide] | 1000 to 20000
CCN(CC)C(=O)c1ccc(-c2cc(NCCN3CCCCC3)c3cnccc3n2)cc1 [N,N-Diethyl-4-(4-((2-(piperidin-1-yl)ethyl)amino)-1,6-naphthyridin-2-yl)benzamide] | 1000 to 20000
CCN(CC)C(=O)c1ccc(-c2cc(NCCCN3CCN(S(C)(=O)=O)CC3)c3cnccc3n2)cc1 [N,N-Diethyl-4-(4-((3-(4-(methylsulfonyl)piperazin-1-yl)propyl)amino)-1,6-naphthyridin-2-yl)benzamide] | 1000 to 20000

SMILES | IC50 [nM]
CCN(CC)C(=O)c1ccc(-c2cc(NCCCN3CCNCC3)c3cnccc3n2)cc1 [N,N-Diethyl-4-(4-((3-(piperazin-1-yl)propyl)amino)-1,6-naphthyridin-2-yl)benzamide] | 1000 to 20000
CCN(CC)C(=O)c1ccc(-c2cc(NCCCN3CCOCC3)c3cnccc3n2)cc1 [N,N-Diethyl-4-(4-((3-morpholinopropyl)amino)-1,6-naphthyridin-2-yl)benzamide] | 1000 to 20000
CCN(CC)C(=O)c1ccc(-c2cc(NC3CCNCC3)c3cnccc3n2)cc1 [N,N-Diethyl-4-(4-(piperidin-4-ylamino)-1,6-naphthyridin-2-yl)benzamide] | 1000 to 20000
CCN(CC)C(=O)c1ccc(-c2cc(NCCCN3CCCCC3)c3cncc(C)c3n2)cc1 [N,N-Diethyl-4-(8-methyl-4-((3-(piperidin-1-yl)propyl)amino)-1,6-naphthyridin-2-yl)benzamide] | ≥ 20000
CCN(CC)C(=O)c1nc2ccc(-c3cc(NCCCN4CCCCC4)c4cnccc4n3)cc2o1 [N,N-Diethyl-6-(4-(3-(piperidin-1-yl)propylamino)-1,6-naphthyridin-2-yl)benzo[d]oxazole-2-carboxamide] | 1000 to 20000
CCN(CC)C(=O)c1nc2ccc(-c3cc(NCCCN4CCCCC4)c4cnccc4n3)cc2s1 [N,N-Diethyl-6-(4-(3-(piperidin-1-yl)propylamino)-1,6-naphthyridin-2-yl)benzo[d]thiazole-2-carboxamide] | 1000 to 20000
CCN(CC)C(=O)COCc1ccc(-c2cc(NCCCN3CCCCC3)c3cnccc3n2)cc1 [N,N-diethyl-2-((4-(4-((3-(piperidin-1-yl)propyl)amino)-1,6-naphthyridin-2-yl)benzyl)oxy)acetamide] | 1000 to 20000
CCN(CC)C(=O)CCOc1ccc(-c2cc(NCCCN3CCCCC3)c3cnccc3n2)cc1 [N,N-diethyl-3-(4-(4-((3-(piperidin-1-yl)propyl)amino)-1,6-naphthyridin-2-yl)phenoxy)propanamide] | ≥ 20000
CCN(CC)C(=O)c1ccc(-c2cc(NCCCN3CCCCC3)nc3ncccc23)cc1 [N,N-diethyl-4-(2-(3-(piperidin-1-yl)propylamino)-1,8-naphthyridin-4-yl)benzamide] | ≥ 20000
CCN(CC)C(=O)c1ccc(-c2cc(NCCN3CCN(S(C)(=O)=O)CC3)c3cnccc3n2)cc1 [N,N-diethyl-4-(4-(2-(4-(methylsulfonyl)piperazin-1-yl)ethylamino)-1,6-naphthyridin-2-yl)benzamide] | 1000 to 20000
CCN(CC)C(=O)c1ccc(-c2cc(NCCN3CCN(C)CC3)c3cnccc3n2)cc1 [N,N-diethyl-4-(4-(2-(4-methylpiperazin-1-yl)ethylamino)-1,6-naphthyridin-2-yl)benzamide] | 1000 to 20000
CCN(CC)C(=O)c1ccc(-c2cc(NCCN3CCNCC3)c3cnccc3n2)cc1 [N,N-diethyl-4-(4-(2-(piperazin-1-yl)ethylamino)-1,6-naphthyridin-2-yl)benzamide] | 1000 to 20000
CCN(CC)C(=O)c1ccc(-c2cc(NCCN3CCOCC3)c3cnccc3n2)cc1 [N,N-diethyl-4-(4-(2-morpholinoethylamino)-1,6-naphthyridin-2-yl)benzamide] | 1000 to 20000
CCN(CC)C(=O)c1ccc(-c2cc(NCCCN3CCN(C)CC3)c3cnccc3n2)cc1 [N,N-diethyl-4-(4-(3-(4-methylpiperazin-1-yl)propylamino)-1,6-naphthyridin-2-yl)benzamide] | 1000 to 20000
CCN(CC)C(=O)c1ccc(-c2cc(NCCCN3CCCCC3)c3ncccc3n2)cc1 [N,N-diethyl-4-(4-(3-(piperidin-1-yl)propylamino)-1,5-naphthyridin-2-yl)benzamide] | ≥ 20000
CCN(CC)C(=O)c1ccc(-c2cc(NCCCN3CCCCC3)c3cnccc3n2)cc1 [N,N-diethyl-4-(4-(3-(piperidin-1-yl)propylamino)-1,6-naphthyridin-2-yl)benzamide] | ≤ 1000
CCN(CC)C(=O)c1ccc(-c2cc(NCCCN3CCCCC3)c3ccncc3n2)cc1 [N,N-diethyl-4-(4-(3-(piperidin-1-yl)propylamino)-1,7-naphthyridin-2-yl)benzamide] | ≥ 20000
CCN(CC)C(=O)c1ccc(-c2cc(NCCCN3CCCCC3)c3cccnc3n2)cc1 [N,N-diethyl-4-(4-(3-(piperidin-1-yl)propylamino)-1,8-naphthyridin-2-yl)benzamide] | ≥ 20000
